# Key:
# GABABR1a = molecular target: T1, GABABR1a (Homo sapiens, UniProt Q9UBS5); test: Cell surface binding assay: Fc-tagged APP proteins applied to GABABR-transfected HEK293 cells, bound Fc detected by immunofluorescence; type: cell-based; conditions: Fc-tagged proteins 500 nM, 1 hr at RT; GFP-transfected cells as negative control
# T1 construct: expressed in transfected cells; host or cells: HEK293T
# Experimental: To confirm the APPα-GABABR interaction and identify the interacting domains, we used a cell-based binding assay. Purified Fc-sAPPα (or its domains) were exogenously applied to GABABR-transfected HEK293 cells. Bound Fc-sAPPα was determined by immunofluorescence.
# (§1) We first determined which GABAB subunit and isoform sAPPα bound. The GABABR is comprised of two subunits, the GABABR1 and the GABABR2 subunit. GABABR1 is present as two main isoforms (1a and 1b), with the only difference between these isoforms being the presence of two protein-binding sushi repeats in the ectodomain of GABABR1a (FIG. 1A-B). […] The sequence of the Sushi domain 1 is […].
# HEK293T cells were transfected with GFP (as negative control) or pdisplay-GABABR-1a, -1b, or -2 plasmids using Fugene6 (Promega). Twenty-four hours after transfection, the cells were incubated with Fc (as negative control) or the various Fc-tagged APP proteins (500 nM, in Dulbecco's modified Eagle's medium [DMEM] supplemented with 20 mM HEPES [pH 7.4]) for 1 hr at RT. After three brief washes with DMEM/20 mM HEPES (pH 7.4), cells were fixed in 4% paraformaldehyde, 4% sucrose in PBS. […] Image thresholding was set with ImageJ software using constant settings per experiment and the area of Fc binding was measured relative to cell area.
# [1] = molecular target: T2, sushi1 domain of GABABR1a (Homo sapiens, UniProt Q9UBS5); test: Isothermal titration calorimetry (ITC) with purified sushi1; type: binding
# T2 construct: made in house
# T2 sequence (Q9UBS5 26-97): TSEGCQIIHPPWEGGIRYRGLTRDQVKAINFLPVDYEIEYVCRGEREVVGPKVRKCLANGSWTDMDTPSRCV
# Experimental: as §1
# All ITC experiments were carried out on a MicroCal iTC200 system. For ITC experiments involving APP constructs expressed in HEK293 cells, the purified GABABR1a-Sushi1 domain, sAPPα, CuBDAcD, AcD and CuBD constructs were buffer-exchanged by size exclusion chromatography in 20 mM Na-HEPES pH 7.0, 150 mM NaCl supplemented with 5 mM CaCl2. Concentrated samples were diluted and degassed before the experiment at the concentrations reported in the FIG. legends. sAPP fragments (all of them at 30 μM) were placed in the MicroCal sample cell and matching buffer was placed in the reference cell. Sushi1 (300 μM) was in the syringe and was injected into the cell in a series of 1 μL injections at 25° C. All the datasets were subtracted with a reference data consisting of serial injections of Sushi1 in the cell, containing buffer only under the same conditions. For ITC experiments involving synthetic APP peptides, the Sushi-1 protein was dialysed overnight to PBS buffer. […]
# [2] = system: primary hippocampal neurons; test: mEPSCs & mIPSCs in cultured primary hippocampal neurons (wild type); type: cell-based, mouse; conditions: acute application, 250 nM each
# Experimental: mEPSCs & mIPSCs are measured in cultured primary hippocampal neurons at baseline and following acute application of agonists. Excitatory terminals selectively express the sushi domain-containing GABABR1a isoform (ref18), where it functions to inhibit neurotransmitter release (ref 24). Acute exposure of primary hippocampal neurons from wild type mice to 30μM baclofen, a GABABR agonist, or 250 nM sAPPα (Fc cleaved) reduces the frequency of miniature excitatory postsynaptic currents (mEPSCs) by 68% (FIG. 8 a,b) and 39% (FIG. 8 c,d), respectively, with no effect on mEPSC amplitude (FIG. 8e). […] Acute application of 30 μM baclofen or 250 nM purified sAPPα reduces the frequency of miniature inhibitory postsynaptic currents (mIPSCs) by 63% (FIG. 8a, 9a) and 44% (FIG. 8c, 9b), respectively, which is blocked by pretreatment with the GABABR antagonist CGP55845 (CGP, 5 μM) (FIG. 8f, 9d). Application of sAPPα causes a minor (14%) reduction on mIPSC amplitude (FIG. 8e, 9c). […] Baclofen is known to reduce the frequencies of mEPSCs and mIPSCs, which we have also confirmed. […] To confirm that the agonist is acting through GABABR1a, the agonist is tested in cultures with shRNA mediated knockdown of GABABR1a or antisense oligonucleotides mediated exon skipping of the exon encoding the Sushi domain 1 of GABABR1a. Antagonists are tested by treatment in combination with the agonist, Baclofen. […] As an antagonist we test an antibody against the sushi domain sequence (SEQ ID No: 5): […] SWTDMDTPSRCV. An antibody specifically binding to this domain which acts as an antagonist increases the frequencies of mEPSCs and mIPSCs. sAPPα also reduces mEPSC and mIPSC frequency in App/Aplp1 dKO cultures (FIG. 8j, 9f), excluding the possibility that sAPPα interferes with a complex of full-length APP and GABABR1 to exert its effect on GABABR signaling.
# Hippocampal neurons were cultured from E18 C57/B16 wild type mice or APP/APLP1 dKO mice (provided by Ulrike Muller46) and plated on poly-D-lysine (Millipore), and laminin (Invitrogen) coated coverslips (Nalge Nunc International). Neurons were maintained in Neurobasal medium (Invitrogen) supplemented with B27, glucose, glutamax, penicillin/streptomycin (Invitrogen) and 25 μM β-mercaptoethanol.
# Single neurons from wild type or APP/APLP1 null mutant embryos (E18) were recorded within the large neuronal network at DIV 12-15. The intracellular whole-cell pipette medium contained (in mM): 136 KCl, 18 HEPES, 4 Na-ATP, 4.6 MgCl2, 15 Creatine Phosphate, 1 EGTA and 50 U/ml Phospocreatine Kinase (300 mOsm, pH 7.30). Regular external solution contained 2 mM/2 mM Ca2+/Mg2+(in mM: 140 NaCl, 2.4 KCl, 2 CaCl2), 2 MgCl2, 10 HEPES, 14 Glucose (300 mOsm, pH 7.30)) and TTX (1 μM). Pharmacological reagents (30 μM baclofen, 5 μM CGP), sAPLP1, full length sAPP and sAPP derived peptides (250 nM each) were bath applied (dissolved in external medium described above) using a separate gravity driven application inlet. Recordings were done in whole cell voltage clamp configuration at −70 mV with a double EPC-10 amplifier (HEKA Elektronik) under control of Patchmaster v2×32 software (HEKA Elektronik). Currents were low-pass filtered at 3 kHz and stored at 20 kHz. Patch pipettes were pulled from borosilicate glass using a multi-step puller (P-1000; Sutter Instruments). Pipette resistance ranged from 3 to 5 MΩ and was compensated to 75-80%. Only cells with series resistances <15 MΩ were included in analysis. All recordings were done at room temperature. Spontaneous events were detected using Mini Analysis program (Synaptosoft). mEPSCs and mIPSCs were separated on the basis of their distinct decay kinetics, using a threshold of 5 ms47. Baseline was determined from an average of 60 sec of recordings prior to protein or drug treatment. Effect of treatment was determined from an average of 30 sec recordings after 140 sec of protein or drug treatment.
# CA1 pyramidal neurons = test: Long-term potentiation in hippocampal slices; type: cell-based; conditions: non-primed high frequency stimulation protocol for agonists
# Experimental: Long-term potentiation (LTP) is induced by stimulation of Schaffer collateral fibers and the response of CA1 pyramidal neurons is measured by extracellular recordings. For measuring antagonists, a primed burst stimulation protocol is used to activate GABABR receptors. Under this protocol, an antagonist blocks induction of LTP. For measuring agonists, a non-primed high frequency stimulation protocol is used.
# T1 sequence (Q9UBS5 20-591 limits assumed): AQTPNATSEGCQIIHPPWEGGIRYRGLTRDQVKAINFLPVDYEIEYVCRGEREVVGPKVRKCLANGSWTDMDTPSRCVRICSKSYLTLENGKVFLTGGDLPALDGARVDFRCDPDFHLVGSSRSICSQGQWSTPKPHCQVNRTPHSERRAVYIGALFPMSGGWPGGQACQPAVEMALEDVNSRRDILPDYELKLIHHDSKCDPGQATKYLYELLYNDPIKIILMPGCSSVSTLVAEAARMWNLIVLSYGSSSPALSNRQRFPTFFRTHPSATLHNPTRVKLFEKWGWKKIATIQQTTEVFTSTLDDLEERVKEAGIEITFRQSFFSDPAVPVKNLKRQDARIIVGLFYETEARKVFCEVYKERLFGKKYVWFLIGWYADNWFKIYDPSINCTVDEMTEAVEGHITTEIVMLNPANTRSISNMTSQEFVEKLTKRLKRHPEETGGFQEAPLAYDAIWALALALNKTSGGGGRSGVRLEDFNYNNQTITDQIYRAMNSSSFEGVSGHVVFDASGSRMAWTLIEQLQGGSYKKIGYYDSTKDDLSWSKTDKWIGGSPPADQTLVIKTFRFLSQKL
substance,measurement,setting,value
"ED: Fc-fusion of the 33 aa extension domain, mouse APP695 195-227aa",binding to GABABR1a-expressing HEK293 cells (immunofluorescence),GABABR1a,sufficient for binding to GABABR1a
"GGADTDYADG (listed as Homo sapiens) [residues 211-220, synthetic peptide within the ExD, 211-220AA of APP695]",binding to sushi1 by ITC (in words),[1],fails to bind
NVDSADAEEDDSDVWWGGADTDYADGSEDKVVE (listed as Homo sapiens) [Extension domain of human sAPPα (33 amino acids)],effect on mEPSC frequency (in words),[2],reduces the frequencies of mEPSCs and mIPSCs
same,effect on mIPSC frequency (in words),[2],reduces the frequencies of mEPSCs and mIPSCs
same,effect on LTP,CA1 pyramidal neurons,facilitates LTP

# — patent publication US10829528B2, “Therapeutic agents for neurological and psychiatric disorders” (VIB VZW, priority 2016, dated 2020)
